Test results as given in PMC11480511 (Scientific Reports, 2024).

How the values were obtained:
[1] = system: HOP-92; assay: NCI single-dose growth inhibition screen; assay type: cell-based; details: Homo sapiens; Non-Small Cell Lung Cancer HOP-92; single dose 10^−5 M
[2] = system: RPMI-8226; assay: NCI single-dose growth inhibition screen; assay type: cell-based; details: Homo sapiens; Leukemia RPMI-8226; single dose 10^−5 M
[3] = system: S. aureus ATCC 6538; assay: Antibacterial screening, agar cup diffusion method; assay type: cell-based; details: Gram + ve strain; for MIC: Staphylococcus aureus, ATCC6538, read-out: Minimum inhibitory concentrations (MIC, µM) S. aureus ATCC 6538
[4] = system: SF-539; assay: NCI single-dose growth inhibition screen; assay type: cell-based; details: Homo sapiens; CNS Cancer SF-539; single dose 10^−5 M
[5] = system: T-47D; assay: NCI single-dose growth inhibition screen; assay type: cell-based; details: Homo sapiens, T47D; Breast Cancer T-47D; single dose 10^−5 M
[6] = system: A498 renal cancer cell line; assay: cells; details: Homo sapiens; for viability at 0.4 µM / viability at 1.6 µM / viability at 25 µM / viability at 100 µM: A498; for IC50: A498, read-out: In vitro cytotoxicity (IC50) A498 cell line (µM ± SEM)
[7] = system: human melanoma LOX IMVI; assay: cells; details: for IC50: read-out: In vitro cytotoxicity (IC50) LOX IMVI (µM ± SEM)
[8] = system: SNB-19; assay: NCI single-dose growth inhibition screen; assay type: cell-based; details: Homo sapiens; CNS Cancer SNB-19; single dose 10^−5 M
[9] = system: NCI-H522; assay: NCI single-dose growth inhibition screen; assay type: cell-based; details: Homo sapiens; Non-Small Cell Lung Cancer NCI-H522; single dose 10^−5 M
[10] = system: UO-31; assay: NCI single-dose growth inhibition screen; assay type: cell-based, human; details: Homo sapiens, UO-31, Renal Cancer UO-31; single dose 10^−5 M
[11] = system: IGROV1; assay: NCI single-dose growth inhibition screen; assay type: cell-based; details: Homo sapiens, IGROV-1; Ovarian Cancer IGROV1; single dose 10^−5 M
[12] = system: A498; assay: NCI single-dose growth inhibition screen; assay type: cell-based, human; details: single dose 10^−5 M; for inhibition at 10 µM: Homo sapiens, A498, Renal Cancer A498; for Growth Inhibition (%): Renal Cancer A498
[13] = system: HOP-62; assay: NCI single-dose growth inhibition screen; assay type: cell-based; details: Homo sapiens; Non-Small Cell Lung Cancer HOP-62; single dose 10^−5 M
[14] = system: P. aeruginosa ATCC 27,853; assay: Antibacterial screening, agar cup diffusion method; assay type: cell-based; details: Gram –ve strain; for MIC: Pseudomonas aeruginosa, ATCC27, read-out: Minimum inhibitory concentrations (MIC, µM) P. aeruginosa ATCC 27,853
Procedure: Anti-bacterial activity of the recently synthesized compounds 3a-k was evaluated at AUMC (Assiut University Mycological Centre), Assiut, Egypt. Assays were done against Gram-negative strains of K. pneumoniae (ATCC 100310, E. coli (ATCC 25922), Pseudomonas aeruginosa (ATCC 27853) and the Gram-positive S. aureus (ATCC 6538) strain utilizing standard agar cup diffusion method. The isolates from the four bacterial species examined were kept in TSB (Trypticase Soya Broth, Becton and Dickinson) with 10% glycerol at -70 °C and then subcultured on TSA (Trypticase Soya Agar, Becton and Dickinson) and TSB for 24 h at 37 °C former to inoculation. Bacterial isolates were then plated on sterile petri plates with 1 × 10^8 CFU/mL (0.5 McFarland turbidity) and 20 mL of Mueller Hinton Agar media (Oxoid) was then loaded. To ensure that the microorganisms were evenly dispersed, the plates were gently rotated before being left to harden on a level surface. Four equally spaced spherical-shaped wells (10 mm diameter) were painstakingly drilled using a sterilized cork bore after media solidification. All tested compounds under test underwent two-fold serial dilutions in a sequential manner. Three replications of 100 µL of each concentration were added to a well using a micropipette. Plates were then incubated for 24-hour at 37 °C. The average of the inhibition zones was then calculated. To determine the MICs, the natural logarithm of each diluted test substance’s concentration was plotted against the average area of the related inhibition zone. Following that, a regression line was created and the intercept on the ‘ln concentration” axis was determined, and the antilogarithm was calculated to indicate the MIC value[34],[63].

[15] = system: UACC-62; assay: NCI single-dose growth inhibition screen; assay type: cell-based; details: Homo sapiens; Melanoma UACC-62; single dose 10^−5 M
[16] = system: SNB-75; assay: NCI single-dose growth inhibition screen; assay type: cell-based, human; details: Homo sapiens, SNB-75, CNS Cancer SNB-75; single dose 10^−5 M
[17] = system: MCF7; assay: NCI single-dose growth inhibition screen; assay type: cell-based, human; details: single dose 10^−5 M; for inhibition at 10 µM: Homo sapiens, MCF7, Breast Cancer MCF7
[18] = system: NCI-H460; assay: NCI single-dose growth inhibition screen; assay type: cell-based; details: Homo sapiens; Non-Small Cell Lung Cancer NCI-H460; single dose 10^−5 M
[19] = system: BT-549; assay: NCI single-dose growth inhibition screen; assay type: cell-based; details: Homo sapiens; Breast Cancer BT-549; single dose 10^−5 M
[20] = system: NCI-H322M; assay: NCI single-dose growth inhibition screen; assay type: cell-based; details: Homo sapiens; Non-Small Cell Lung Cancer NCI-H322M; single dose 10^−5 M
[21] = system: M14; assay: NCI single-dose growth inhibition screen; assay type: cell-based; details: Homo sapiens; Melanoma M14; single dose 10^−5 M
Procedure: Following the guidelines established by the drug evaluation department of the National Cancer Institute (NCI), USA, all target compounds 3a–l were examined against 60 cancer cell lines at a single concentration of 10 µM.
The anti-cancer potential of the tested compounds was evaluated at the National cancer institute (NCI), USA, against 9 panels of 60 various cell lines derived from nine human tumours available usually at NCI library. The procedures for the screening were described in details in NCI website (dttp://www.dtp.nci.nih.gov.) and were done according to NCI protocols[60] . The anticancer screening was carried out at single dose of 10^−5 M, NCI, Bethesda, USA. The results obtained as growth inhibition (%).

[22] = system: DU-145; assay: NCI single-dose growth inhibition screen; assay type: cell-based; details: Homo sapiens; Prostate Cancer DU-145; single dose 10^−5 M
[23] = system: UACC-257; assay: NCI single-dose growth inhibition screen; assay type: cell-based; details: Homo sapiens; Melanoma UACC-257; single dose 10^−5 M
[24] = system: PC-3; assay: NCI single-dose growth inhibition screen; assay type: cell-based; details: Homo sapiens; Prostate Cancer PC-3; single dose 10^−5 M
[25] = system: HL-60(TB); assay: NCI single-dose growth inhibition screen; assay type: cell-based; details: Homo sapiens; Leukemia HL-60(TB); single dose 10^−5 M
[26] = system: HS 578T; assay: NCI single-dose growth inhibition screen; assay type: cell-based; details: Homo sapiens; Breast Cancer HS 578T; single dose 10^−5 M
[27] = system: OVCAR-8; assay: NCI single-dose growth inhibition screen; assay type: cell-based; details: Homo sapiens; Ovarian Cancer OVCAR-8; single dose 10^−5 M
[28] = system: A549/ATCC; assay: NCI single-dose growth inhibition screen; assay type: cell-based; details: Homo sapiens; Non-Small Cell Lung Cancer A549/ATCC; single dose 10^−5 M
[29] = system: K-562; assay: NCI single-dose growth inhibition screen; assay type: cell-based; details: Homo sapiens, K562; Leukemia K-562; single dose 10^−5 M
[30] = system: EKVX; assay: NCI single-dose growth inhibition screen; assay type: cell-based; details: Homo sapiens; Non-Small Cell Lung Cancer EKVX; single dose 10^−5 M
[31] = system: MOLT-4; assay: NCI single-dose growth inhibition screen; assay type: cell-based; details: Homo sapiens; Leukemia MOLT-4; single dose 10^−5 M
[32] = system: LOX IMVI; assay: NCI single-dose growth inhibition screen; assay type: cell-based, human; details: Melanoma LOX IMVI, single dose 10^−5 M; for inhibition at 10 µM: Homo sapiens, LOX IMVI

## O=C(O)c1cn(C2CC2)c2cc(N3CCN(C(=O)CCCN4C(=O)S/C(=C\c5ccc(F)cc5)C4=O)CC3)c(F)cc2c1=O [3i]
[1]
  inhibition at 10 µM: 5.7%
[2]
  inhibition at 10 µM: < 0%
[3]
  Minimum inhibitory concentrations (MIC, µM) S. aureus ATCC 6538: did not show considerable anti-bacterial activity
  MIC: > 20 µM
[4]
  inhibition at 10 µM: 5.8%
[5]
  inhibition at 10 µM: 5%
[6]
  viability at 0.4 µM: 95.7%
  viability at 1.6 µM: 83.5%
  viability at 25 µM: 65%
  viability at 100 µM: 52.3%
  IC50: 147 ± 8.3 µM
[7]
  viability at 0.4 µM: 74.9%
  viability at 1.6 µM: 67.8%
  viability at 25 µM: 51.5%
  viability at 100 µM: 41.2%
  IC50: 25.4 ± 1.43 µM
[8]
  inhibition at 10 µM: 6.2%
[9]
  inhibition at 10 µM: 22.9%
[10]
  inhibition at 10 µM: 21.7%
[11]
  inhibition at 10 µM: 1.3%
[12]
  inhibition at 10 µM: 41.5%
  Growth Inhibition (%): 41.5%
[13]
  inhibition at 10 µM: 2.9%
[14]
  Minimum inhibitory concentrations (MIC, µM) P. aeruginosa ATCC 27,853: did not show considerable anti-bacterial activity
  MIC: > 20 µM
[15]
  inhibition at 10 µM: 19.3%
[16]
  inhibition at 10 µM: 16.5%
[17]
  inhibition at 10 µM: 1.3%
[18]
  inhibition at 10 µM: < 0%
[19]
  inhibition at 10 µM: 8.6%
[20]
  inhibition at 10 µM: 11.5%
[21]
  inhibition at 10 µM: 4.6%
[22]
  inhibition at 10 µM: < 0%
[23]
  inhibition at 10 µM: 12.3%
[24]
  inhibition at 10 µM: < 0%
[25]
  inhibition at 10 µM: < 0%
[26]
  inhibition at 10 µM: 3%
[27]
  inhibition at 10 µM: 6.8%
[28]
  inhibition at 10 µM: 10.4%
[29]
  inhibition at 10 µM: < 0%
[30]
  inhibition at 10 µM: < 0%
[31]
  inhibition at 10 µM: < 0%
[32]
  inhibition at 10 µM: 51.3%
  Growth Inhibition (%): 51.3%

## O=C(O)c1cn(C2CC2)c2cc(N3CCN(C(=O)CCCN4C(=O)SC(=Cc5cccc6ccccc56)C4=O)CC3)c(F)cc2c1=O [3j, 1-cyclopropyl-6-fluoro-7-[4-[4-[5-(1-naphthylmethylene)-2,4-dioxo-thiazolidin-3-yl]butanoyl]piperazin-1-yl]-4-oxo-quinoline-3-carboxylic acid]
[1]
  inhibition at 10 µM: 13.3%
[2]
  inhibition at 10 µM: 6.1%
[3]
  MIC: > 20 µM
[4]
  inhibition at 10 µM: 9.9%
[5]
  inhibition at 10 µM: 7.5%
[6]
  viability at 0.4 µM: 84.7%
  viability at 1.6 µM: 71.9%
  viability at 25 µM: 51.4%
  viability at 100 µM: 42.5%
  IC50: 33.9 ± 1.91 µM
[7]
  viability at 0.4 µM: 86.5%
  viability at 1.6 µM: 79.4%
  viability at 25 µM: 61.5%
  viability at 100 µM: 48.5%
  IC50: 110 ± 6.23 µM
[8]
  inhibition at 10 µM: 20.1%
[9]
  inhibition at 10 µM: 18.5%
[10]
  inhibition at 10 µM: 48.1%
[11]
  inhibition at 10 µM: 25.9%
[12]
  inhibition at 10 µM: 50.9%
  Growth Inhibition (%): 50.9%
[13]
  inhibition at 10 µM: 15.1%
[14]
  MIC: > 20 µM
[15]
  inhibition at 10 µM: 20.4%
[16]
  inhibition at 10 µM: 28.4%
[17]; Breast Cancer MCF7
  Growth Inhibition (%): 41.7%
[17]
  inhibition at 10 µM: 41.7%
[18]
  inhibition at 10 µM: 3.9%
[19]
  inhibition at 10 µM: 20.5%
[20]
  inhibition at 10 µM: 26.6%
[21]
  inhibition at 10 µM: 16.7%
[22]
  inhibition at 10 µM: 21.9%
[23]
  inhibition at 10 µM: 19.1%
[24]
  inhibition at 10 µM: < 0%
[25]
  inhibition at 10 µM: < 0%
[26]
  inhibition at 10 µM: 30.2%
[27]
  inhibition at 10 µM: 9%
[28]
  inhibition at 10 µM: 9.3%
[29]
  inhibition at 10 µM: 10.9%
[30]
  inhibition at 10 µM: 9.1%
[31]
  inhibition at 10 µM: 17.5%
[32]
  inhibition at 10 µM: 38.5%
  Growth Inhibition (%): 38.5%
